According to ChEMBL document CHEMBL1133787, “Solid-phase optimisation of achiral amidinobenzyl indoles as potent and selective factor Xa inhibitors” (Bioorg Med Chem Lett, 2001):

Tests used:
[1] = biological target: Coagulation factor X (Homo sapiens, UniProt P00742); assay: Inhibitory activity against serine protease factor Xa (fXa) was determined
[2] = biological target: Prothrombin (Homo sapiens, UniProt P00734); assay: Inhibitory activity against thrombin was determined

Sequence of Coagulation factor X (P00742 41-179 limits assumed): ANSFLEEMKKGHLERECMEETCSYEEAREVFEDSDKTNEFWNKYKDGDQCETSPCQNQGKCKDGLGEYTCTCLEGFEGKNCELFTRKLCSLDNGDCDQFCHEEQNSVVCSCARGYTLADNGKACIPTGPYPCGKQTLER
Sequence of Coagulation factor X (P00742 235-488 limits assumed): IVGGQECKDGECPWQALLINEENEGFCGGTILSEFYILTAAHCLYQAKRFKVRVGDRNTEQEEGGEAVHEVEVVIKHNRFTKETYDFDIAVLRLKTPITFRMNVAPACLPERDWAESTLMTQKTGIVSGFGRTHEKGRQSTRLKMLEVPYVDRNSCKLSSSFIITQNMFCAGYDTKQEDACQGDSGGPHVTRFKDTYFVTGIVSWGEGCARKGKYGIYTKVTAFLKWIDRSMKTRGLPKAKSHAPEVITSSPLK

Structure (SMILES) | Ki [1] [nM] | Ki [2] [nM]
C[N+](C)(C)c1ccc(CNC(=O)c2cc3cc(O)ccc3n2Cc2cccc(C(=N)N)c2)cc1 | 28 | 12000
Cc1cc(C)cc(CNC(=O)c2cc3c(O)cccc3n2Cc2cccc(C(=N)N)c2)c1 | 11 | 620
N=C(N)c1cccc(CNC(=O)c2cc3cc(N)ccc3n2Cc2cccc(C(=N)N)c2)c1 | 84 | 
N=C(N)c1cccc(Cn2c(C(=O)NCc3cccc(Cl)c3)cc3c(O)cccc32)c1 | 262 | 
N=C(N)c1cccc(Cn2c(C(=O)Nc3cc(Cl)cc(Cl)c3)cc3c(O)cccc32)c1 | 798 | 

Second part, the molecule after the results:

Ki [1] [nM] | Ki [2] [nM] | Structure (SMILES)
 | 3600 | N=C(N)c1cccc(CNC(=O)c2cc3c(O)cccc3n2Cc2cccc(C(=N)N)c2)c1
707 |  | N=C(N)c1cccc(Cn2c(C(=O)NCCc3cccc(Cl)c3)cc3c(O)cccc32)c1
5 | 771 | N=C(N)c1cccc(Cn2c(C(=O)NCc3cc(Cl)cc(Cl)c3)cc3c(O)cccc32)c1
